# Test results: patent publication US9481876B2, “Cathepsin L inhibitors and probes comprising vinyl sulfonate moiety and methods of using same” (Research Foundation of the City University of New York, priority 2014, dated 2016)
# “Also recorded” adds a separate entry of the source.
# Legend:
# [1] = target: T1, active recombinant human cathepsin L (Homo sapiens, UniProt P07711); assay: inhibition and inactivation kinetics of cathepsin L, hydrolysis of fluorescent substrate Z-Phe-Arg-(7-Amino-4-methylcoumarin); type: biochemical
# T1 construct: active recombinant human cathepsin L
# Description: Based on this initial inhibitory screen compound 100 (FIG. 1), was proposed and successfully synthesized from precursor 301 using a multi-step synthetic methodology (FIG. 4A and FIG. 4B). […] FIG. 5 depicts a progress curve for cathepsin L-catalyzed hydrolysis of fluorescent substrate, Z-Phe-Arg-(7-Amino-4-methylcoumarin) with various concentration of compound 100. […] The dose-dependent progress curves were utilized to obtain the second order cathepsin L inactivation rate constant (kinact). […] The mode of inhibition was irreversible because no significant recovery of enzyme activity could be achieved, even after a very large dilution of inactivated reaction mixture.
# (§1) This panel of enzymes included cysteine cathepsins, an aspartyl cathepsin, a serine cathepsin, a cysteine containing enzyme PTP, and a serine protease. The second order inactivation rate constants were thus determined by performing inactivation kinetics under a pseudo-first order condition (Table 1). […] Furthermore, no reactivity was observed against other panel of enzymes (e.g. aspartyl cathepsin D, serine cathepsin G, and a low pKa cysteine containing enzyme hPTP1B, and serine protease trypsin). A remarkable selectivity profile observed for compound 100 in these experiments is noteworthy, and thus is thought to lend itself well for the development of cathepsin L probes.
# (§2) Table 1 depicts second order enzyme inactivation rate constants (kinact) of compound 100 against a panel of closely-related enzymes. Relative Selectivity Factor (RSF)=kinact (Cathepsin L)/kinact (other enzyme); NI*=no inhibition at 0.1 mM of compound 100 in 1 h, NA**=Not Applicable.
# [2] = target: T2, Cathepsin K (Homo sapiens, UniProt P43235); assay: selectivity panel inactivation kinetics, Cathepsin K; type: biochemical; conditions: kinact (Cathepsin L)/kinact (Cathepsin K); fold
# T2 sequence (P43235 115-329): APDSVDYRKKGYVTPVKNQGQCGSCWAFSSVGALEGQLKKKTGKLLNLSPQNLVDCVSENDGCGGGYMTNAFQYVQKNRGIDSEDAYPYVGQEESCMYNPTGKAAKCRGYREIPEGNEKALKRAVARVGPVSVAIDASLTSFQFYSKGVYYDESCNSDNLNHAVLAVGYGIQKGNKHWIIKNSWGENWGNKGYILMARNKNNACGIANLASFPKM
# Description: as §1, §2
# [3] = target: Cathepsin B (Homo sapiens, UniProt P07858); assay: selectivity panel inactivation kinetics, Cathepsin B; type: biochemical; conditions: kinact (Cathepsin L)/kinact (Cathepsin B); fold
# Description: as §1, §2
# [4] = target: Cathepsin S (Homo sapiens, UniProt P25774); assay: selectivity panel inactivation kinetics, Cathepsin S; type: biochemical; conditions: kinact (Cathepsin L)/kinact (Cathepsin S); fold
# Description: as §1, §2
# [5] = target: Cathepsin D (Homo sapiens, UniProt P07339); assay: selectivity panel inactivation kinetics, Cathepsin D; type: biochemical; conditions: aspartyl cathepsin D
# Description: as §1, §2
# [6] = target: T3, Cathepsin G (Homo sapiens, UniProt P08311); assay: selectivity panel inactivation kinetics, Cathepsin G; type: biochemical; conditions: serine cathepsin G
# T3 sequence (P08311 21-244): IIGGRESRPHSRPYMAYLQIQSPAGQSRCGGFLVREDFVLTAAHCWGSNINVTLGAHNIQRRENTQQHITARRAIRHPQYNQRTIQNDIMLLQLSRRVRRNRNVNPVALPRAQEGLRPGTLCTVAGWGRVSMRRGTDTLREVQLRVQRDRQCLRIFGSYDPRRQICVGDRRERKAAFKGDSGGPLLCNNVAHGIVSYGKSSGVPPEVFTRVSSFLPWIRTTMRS
# Description: as §1, §2
# [7] = target: T4, hPTP1B (Homo sapiens, UniProt P18031); assay: selectivity panel inactivation kinetics, hPTP1B; type: biochemical
# T4 sequence (P18031 1-435): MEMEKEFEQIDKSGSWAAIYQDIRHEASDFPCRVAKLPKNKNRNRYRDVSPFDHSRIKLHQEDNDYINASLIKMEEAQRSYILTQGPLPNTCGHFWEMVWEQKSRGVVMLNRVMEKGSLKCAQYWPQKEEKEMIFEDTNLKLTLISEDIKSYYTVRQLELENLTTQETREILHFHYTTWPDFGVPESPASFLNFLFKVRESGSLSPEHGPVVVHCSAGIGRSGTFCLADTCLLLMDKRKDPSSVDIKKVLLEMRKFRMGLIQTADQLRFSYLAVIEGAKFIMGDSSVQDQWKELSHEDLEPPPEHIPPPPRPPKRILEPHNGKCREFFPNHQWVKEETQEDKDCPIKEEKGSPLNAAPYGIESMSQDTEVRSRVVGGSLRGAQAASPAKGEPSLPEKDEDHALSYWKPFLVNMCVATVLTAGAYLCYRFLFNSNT
# Description: as §1, §2
# [8] = test system: Trypsin; assay: selectivity panel inactivation kinetics, Trypsin; type: biochemical; conditions: serine protease trypsin
# Description: as §1, §2
# [9] = test system: intracellular cathepsin L activity in MDA-MB-231 cells; assay: intracellular cathepsin L activity in MDA-MB-231 cells with cell-permeable fluorescent substrate; type: cell-based
# Description: Cell-specific and tissue-specific microenvironments are highly dynamic, and can have a dramatic impact on enzymatic activities and their in vivo function. A direct quantitative reporter of cathepsin L activity in living cancer cells is more desirable for dissecting its role in promoting metastatic cancer. Thus an activity-dependent small molecule probe with desirable cell permeability is urgently needed. […] This cell line is known to overexpress cathepsin L, thereby promoting invasion. A commercial cell-permeable fluorescent substrate of cathepsin L (Enzo LifeSciences, Inc.) was utilized to assess the intracellular inhibitory efficacy of compound 100.
# Specifically, the effect of cathepsin L inhibitor 100 on intracellular cathepsin L activity in metastatic breast cancer MDA-MB-231 cell line was examined by fluorescence. Control cells and cells exposed to compound 100 were incubated with (a) vehicle (DMSO 0.05%). The non-control cells were also incubated with compound 100 (750 nM) overnight (22 h). […] Bright-field, fluorescence and merged images were obtained. […] The results are representative of three independent experiments. The effectiveness of cathepsin L inhibitor 100 was also evaluated using a functional wound-healing assay (FIG. 6A to 6F).
# [10] = test system: MDA-MB-231 breast cancer cells; assay: wound healing assay, cell migration; type: cell-based; conditions: MDA-MB-231 cells, 750 nM, 0, 7 and 22 hrs
# Description: MDA-MB-231 cells were grown in an eight-well glass dish overnight before treating with DMSO (control, 0.05%, FIGS. 6A, 6B and 6C), and compound 100 (750 nM, FIGS. 6D, 6E and 6F). After creating the wounds, images were taken at three different time intervals: t=0 hr (FIG. 6A and FIG. 6D), 7 hrs (FIG. 6B and FIG. 6E), and 22 hrs (FIG. 6C and FIG. 6F). Representative images of three independent experiments are shown. The dotted lines indicate the edge of the wound at time zero, and the arrows indicate the area of wound closure.
# FIG. 7 depicts wound closure, a direct measure of cell migratory potential, as calculated using the following equation: % Wound Closure=[(At=0h−At=22h)/At=0h]×100%, where At=0h is the area of the wound measured immediately after the scratch, and At=22h is the area of the wound after 22 hrs. The figure represents a statistical analysis by three independent experiments using the unpaired Student's t test. The data were evaluated as the mean±1 standard deviation. The image analysis were performed by ImageJ software.
# [11] = target: T5, recombinant human cathepsin L (Homo sapiens, UniProt P07711); assay: initial inhibitory screen of precursors against recombinant human cathepsin L; type: biochemical; conditions: 10 μM
# T5 sequence (P07711 18-333 limits assumed): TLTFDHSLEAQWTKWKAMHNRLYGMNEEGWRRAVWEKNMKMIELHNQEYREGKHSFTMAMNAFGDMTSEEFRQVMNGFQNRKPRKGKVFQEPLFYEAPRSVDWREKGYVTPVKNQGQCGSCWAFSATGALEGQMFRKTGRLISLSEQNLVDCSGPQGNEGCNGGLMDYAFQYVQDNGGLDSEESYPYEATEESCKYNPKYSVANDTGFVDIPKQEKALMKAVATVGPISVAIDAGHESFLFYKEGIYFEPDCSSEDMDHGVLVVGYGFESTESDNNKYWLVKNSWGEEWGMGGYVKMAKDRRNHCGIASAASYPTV
# Description: An initial inhibitory screen of various precursors (see FIG. 3A and FIG. 3B) was performed at 10 μM against recombinant human cathepsin L. The percent inhibition of each precursor is shown below its corresponding precursor in FIG. 3A and FIG. 3B. Precursor 301 was identified as a lead precursor with a 95±3% inhibition. In some embodiments, one or more of the 2, 3, 5 and/or 6 positions are occupied by an aryl group. Examples of suitable aryl groups include NHPh, OPh or homologs thereof.
# Sequence of Cathepsin S (P25774 115-331, species assumed): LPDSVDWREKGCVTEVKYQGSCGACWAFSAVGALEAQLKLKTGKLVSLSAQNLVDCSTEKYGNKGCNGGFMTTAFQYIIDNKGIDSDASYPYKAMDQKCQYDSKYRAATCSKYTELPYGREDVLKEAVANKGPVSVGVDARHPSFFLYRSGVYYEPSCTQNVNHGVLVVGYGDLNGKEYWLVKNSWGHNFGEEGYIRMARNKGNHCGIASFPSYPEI
# Sequence of Cathepsin D (P07339 65-412, species assumed): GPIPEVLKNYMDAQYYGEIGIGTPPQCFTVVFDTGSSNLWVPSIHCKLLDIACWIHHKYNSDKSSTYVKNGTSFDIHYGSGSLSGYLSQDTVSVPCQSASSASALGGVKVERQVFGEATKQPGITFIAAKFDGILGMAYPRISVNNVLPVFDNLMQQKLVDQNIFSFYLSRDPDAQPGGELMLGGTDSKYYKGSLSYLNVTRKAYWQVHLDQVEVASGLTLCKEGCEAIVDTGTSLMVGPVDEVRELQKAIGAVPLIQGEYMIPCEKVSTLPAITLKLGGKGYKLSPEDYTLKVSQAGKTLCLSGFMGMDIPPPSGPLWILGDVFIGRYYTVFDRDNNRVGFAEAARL
time to near complete loss of cathepsin L activity ([1]; 15 nM compound 100),IC50 ([1]; human cathepsin L) [nM],RSF (Relative Selectivity Factor) ([1]; kinact (Cathepsin L)/kinact (Cathepsin L)),mode of inhibition ([1]; no significant recovery of activity after very large dilution),RSF (Relative Selectivity Factor) [2],RSF (Relative Selectivity Factor) [3],RSF (Relative Selectivity Factor) [4],reactivity [5],reactivity [6],reactivity [7],cell permeability [9],percent inhibition [11] [%],SMILES,reactivity [8],"intracellular substrate turnover (green fluorescence) ([9]; 750 nM, overnight (22 h), compared to control)",cell migratory potential (wound closure) [10]
less than 100 s,3.6 ± 0.1,1,irreversible,100,"44,000",13,no reactivity,no reactivity,no reactivity,cell permeable,–,CC(C)C[C@@H](/C=C/S(=O)(=O)Oc1ccc(Br)cc1)NC(=O)[C@H](Cc1ccccc1)NC(=O)OCc1ccccc1 [compound 100],no reactivity,near complete loss of intracellular substrate turnover; also recorded: significant loss of green fluorescent signal intensity,reducing cell migratory potential
–,–,–,–,–,–,–,–,–,–,–,95±3,C=CS(=O)(=O)Oc1ccc(Br)cc1 [Precursor 301],–,–,–
